Test results from the supplement of paper PMC10307832.

What was measured:
Assay in all cases: relative viability (nuclei count vs DMSO), 5 days (fraction); higher = more cells survive
Ibrutinib + Bortezomib = compound: C=CC(=O)N1CCC[C@@H](n2nc(-c3ccc(Oc4ccccc4)cc3)c3c(N)ncnc32)C1 [Ibrutinib] + CC(C)C[C@H](NC(=O)[C@H](Cc1ccccc1)NC(=O)c1cnccn1)B(O)O [Bortezomib] (partner 0.002 µM)
Procedure, shortened: (§1)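 Each reported value is a median over duplicate plates. It expresses relative viability: treated-well nuclei count divided by vehicle-well nuclei count. Lung cancer cell lines in 1536-well plates were dosed by pin tool a day after seeding, alone with one drug or with a fixed anchor-drug dose plus five library-drug doses (not always all listed) in √10 steps, and nuclei were counted after 5 days.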

Ibrutinib + Dasatinib = compound: C=CC(=O)N1CCC[C@@H](n2nc(-c3ccc(Oc4ccccc4)cc3)c3c(N)ncnc32)C1 [Ibrutinib] + Cc1nc(Nc2ncc(C(=O)Nc3c(C)cccc3Cl)s2)cc(N2CCN(CCO)CC2)n1 [Dasatinib] (partner 0.075 µM)
Procedure, shortened: as §1

BMX-IN-1 + Palbociclib = compound: C=CC(=O)Nc1cc(-n2c(=O)ccc3cnc4ccc(-c5ccc(NS(C)(=O)=O)cc5)cc4c32)ccc1C [BMX-IN-1] + CC(=O)c1c(C)c2cnc(Nc3ccc(N4CCNCC4)cn3)nc2n(C2CCCC2)c1=O [Palbociclib] (partner 0.5 µM)
Procedure, shortened: as §1

BMX-IN-1 + Navitoclax = compound: C=CC(=O)Nc1cc(-n2c(=O)ccc3cnc4ccc(-c5ccc(NS(C)(=O)=O)cc5)cc4c32)ccc1C [BMX-IN-1] + CC1(C)CCC(c2ccc(Cl)cc2)=C(CN2CCN(c3ccc(C(=O)NS(=O)(=O)c4ccc(N[C@H](CCN5CCOCC5)CSc5ccccc5)c(S(=O)(=O)C(F)(F)F)c4)cc3)CC2)C1 [Navitoclax] (partner 0.5 µM)
Procedure, shortened: as §1

Row | Cell Line | relative viability (Ibrutinib + Bortezomib; first compound 0.005 µM) | relative viability (Ibrutinib + Bortezomib; first compound 0.01581 µM) | relative viability (Ibrutinib + Bortezomib; first compound 0.05 µM) | relative viability (Ibrutinib + Bortezomib; first compound 0.1581 µM) | relative viability (Ibrutinib + Bortezomib; first compound 0.5 µM) | relative viability (Ibrutinib + Dasatinib; first compound 0.005 µM) | relative viability (Ibrutinib + Dasatinib; first compound 0.01581 µM) | relative viability (Ibrutinib + Dasatinib; first compound 0.05 µM) | relative viability (Ibrutinib + Dasatinib; first compound 0.1581 µM) | relative viability (Ibrutinib + Dasatinib; first compound 0.5 µM) | relative viability (BMX-IN-1 + Palbociclib; first compound 0.02 µM) | relative viability (BMX-IN-1 + Palbociclib; first compound 0.2 µM) | relative viability (BMX-IN-1 + Palbociclib; first compound 0.6325 µM) | relative viability (BMX-IN-1 + Palbociclib; first compound 2 µM) | relative viability (BMX-IN-1 + Navitoclax; first compound 0.02 µM) | relative viability (BMX-IN-1 + Navitoclax; first compound 0.2 µM) | relative viability (BMX-IN-1 + Navitoclax; first compound 0.6325 µM) | relative viability (BMX-IN-1 + Navitoclax; first compound 2 µM)
1 | HCC-827 | 1.19 | 1.05 | 1.15 | 0.982 | 0.807 | 0.358 | 0.277 | 0.206 | 0.262 | 0.143 | 0.486 | 0.409 | 0.503 | 0.467 | 1.02 | 0.992 | 1 | 1.03
2 | HOP-62 | 0.459 | 1 | 0.816 | 0.834 | 0.804 | 0.664 | 0.517 | 0.708 | 0.563 | 0.648 | 0.53 | 0.543 | 0.48 | 0.471 | 1.42 | 1.17 | 1.21 | 1.12
3 | IA-LM | 0.846 | 0.781 | 0.926 | 0.989 | 0.863 | – | – | – | – | – | – | – | – | – | 0.937 | 0.796 | 0.807 | 0.722
4 | LC-2-ad | 1.18 | 1 | 1.06 | 0.965 | 1.02 | 0.315 | 0.608 | 0.637 | 0.49 | 0.565 | 0.498 | 0.574 | 0.543 | 0.509 | 0.55 | 0.504 | 0.776 | 0.513
5 | LCLC-97TM1 | 0.447 | 0.851 | 0.385 | 0.153 | 0.732 | 0.951 | 0.804 | 0.973 | 0.703 | 0.782 | 0.247 | 0.3 | 0.227 | 0.217 | 0.349 | 0.429 | 0.322 | 0.46
6 | LCLC-103H | 0.999 | 1.01 | 1.07 | 0.986 | 1.05 | 0.496 | 0.432 | 0.454 | 0.489 | 0.318 | 0.475 | 0.532 | 0.479 | 0.412 | – | – | – | –
7 | LK-2 | – | – | – | – | – | – | 0.273 | 0.278 | 0.224 | 0.293 | 1.1 | 0.75 | 0.704 | 0.895 | 1.09 | 1.04 | 1.02 | 0.923
8 | LOU-NH91 | 0.509 | 0.553 | 0.513 | 0.476 | 0.478 | 0.473 | 0.474 | 0.485 | 0.522 | 0.38 | – | 0.541 | 0.488 | 0.546 | – | 0.695 | 0.773 | 0.683
9 | LU99A | 1.01 | 0.97 | 1.28 | 1.21 | 1.2 | 0.514 | 0.605 | 0.465 | 0.556 | 0.483 | 0.45 | 0.428 | 0.421 | 0.411 | 0.897 | 0.885 | 0.857 | 0.833
10 | NCI-H358 | – | – | – | – | – | 0.149 | – | 0.136 | 0.152 | 0.0966 | 0.129 | 0.138 | 0.147 | 0.122 | – | – | – | –
11 | NCI-H522 | – | – | – | – | – | 0.744 | 0.584 | 0.731 | 0.773 | 0.723 | 0.841 | 1.14 | 1.02 | 0.86 | – | – | – | –
12 | NCI-H596 | 1.21 | 0.457 | – | 0.834 | 0.92 | – | 0.545 | 0.579 | 0.5 | 0.564 | – | – | – | – | 0.906 | 1.08 | 1.07 | 0.816
13 | NCI-H650 | – | 0.706 | – | 1.12 | 0.932 | 0.408 | 0.484 | 0.378 | 0.491 | 0.465 | 0.293 | 0.332 | 0.331 | 0.353 | – | – | – | –
14 | NCI-H661 | 0.833 | 0.748 | 0.652 | 0.838 | 0.611 | 0.626 | 0.581 | 0.417 | 0.842 | 0.425 | 0.388 | 0.39 | 0.421 | 0.398 | – | – | – | –
15 | NCI-H1299 | 1.02 | 1 | 0.995 | 1.02 | 1.04 | – | – | – | – | – | – | – | – | – | 1.08 | 1.05 | 1.05 | 1.06
16 | NCI-H1395 | – | – | – | – | – | 0.419 | 0.401 | 0.383 | 0.392 | 0.417 | 0.702 | 0.62 | 0.572 | 0.588 | 0.972 | 1.09 | 1.07 | 1.14
17 | NCI-H1563 | 0.778 | 0.771 | 0.807 | 0.742 | 0.752 | 0.431 | 0.456 | 0.507 | 0.46 | 0.415 | – | – | – | – | – | – | – | –
18 | NCI-H1623 | – | – | – | – | – | 0.604 | 0.515 | 0.461 | 0.316 | 0.244 | – | – | – | – | – | – | – | –
19 | NCI-H1648 | – | – | – | – | – | – | – | – | – | – | 0.251 | 0.256 | 0.286 | 0.31 | – | – | – | –
20 | NCI-H1703 | 0.374 | 0.308 | 0.332 | 0.409 | 0.231 | – | – | – | – | – | – | – | – | – | 1.25 | 1.3 | 1.29 | 0.942
21 | NCI-H1793 | – | – | – | – | – | – | 0.371 | 0.358 | 0.389 | 0.303 | 0.38 | 0.35 | 0.285 | 0.307 | 0.454 | 0.363 | 0.483 | 0.38
22 | NCI-H1944 | – | – | – | – | – | 0.21 | 0.18 | 0.206 | 0.178 | 0.193 | 0.35 | 0.357 | 0.327 | 0.288 | 0.992 | 1.11 | 1.02 | 1.08
23 | NCI-H2170 | – | – | – | – | – | 0.464 | 0.413 | 0.209 | 0.447 | 0.211 | 0.426 | 0.421 | 0.447 | 0.373 | 0.742 | 0.634 | 0.689 | 0.623
24 | NCI-H2342 | – | – | – | – | – | 0.314 | 0.315 | 0.294 | 0.279 | 0.276 | 0.578 | 0.519 | 0.51 | 0.568 | – | – | – | –
25 | SW 900 | – | – | – | – | – | – | – | 0.683 | 0.554 | 0.578 | 0.467 | 0.676 | 0.53 | 0.626 | – | – | – | –
